Test results taken from patent publication US10494332B2, “Protein tyrosine phosphatases or SHP2 inhibitors and uses thereof” (Indiana University Research and Technology Corporation, priority 2015, dated 2019).
Several values for one entry are separate records, joined by “and”; a condition that tells them apart may be missing. Identical values can stand only once. Like-named read-outs stand apart in the source and are kept apart here.

What was measured:
Assay in all cases: PTP inhibition assay (pNPP)
Assay type in all cases: biochemical
PTP1B = molecular target: T1, PTP1B (Homo sapiens, UniProt P18031); conditions: pNPP at Km, pH 7.0, 25° C.
T1 sequence (P18031 1-435): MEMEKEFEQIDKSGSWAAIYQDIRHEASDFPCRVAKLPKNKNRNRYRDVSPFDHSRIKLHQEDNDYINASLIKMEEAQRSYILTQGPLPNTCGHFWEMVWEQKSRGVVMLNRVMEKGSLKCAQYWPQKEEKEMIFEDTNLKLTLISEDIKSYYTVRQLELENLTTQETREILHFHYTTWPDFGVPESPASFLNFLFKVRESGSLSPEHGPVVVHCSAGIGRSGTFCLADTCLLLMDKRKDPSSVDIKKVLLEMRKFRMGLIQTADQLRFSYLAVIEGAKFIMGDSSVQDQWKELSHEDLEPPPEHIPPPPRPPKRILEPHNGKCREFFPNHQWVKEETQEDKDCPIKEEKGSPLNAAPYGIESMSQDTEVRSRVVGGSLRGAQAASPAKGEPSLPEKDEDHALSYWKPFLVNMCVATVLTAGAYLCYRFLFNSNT

HePTP = molecular target: T2, HePTP (Homo sapiens, UniProt P35236); conditions: pNPP at Km, pH 7.0, 25° C.
T2 sequence (P35236 1-360): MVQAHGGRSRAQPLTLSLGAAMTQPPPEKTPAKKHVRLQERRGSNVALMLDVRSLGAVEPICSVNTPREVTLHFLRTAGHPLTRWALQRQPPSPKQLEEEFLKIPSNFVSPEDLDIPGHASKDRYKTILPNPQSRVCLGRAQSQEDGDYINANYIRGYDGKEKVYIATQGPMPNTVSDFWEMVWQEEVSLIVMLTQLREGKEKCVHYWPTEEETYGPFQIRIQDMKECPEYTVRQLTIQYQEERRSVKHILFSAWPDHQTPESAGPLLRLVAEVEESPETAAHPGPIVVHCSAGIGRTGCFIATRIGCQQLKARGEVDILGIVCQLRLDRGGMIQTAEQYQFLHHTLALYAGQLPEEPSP

CD45 = molecular target: T3, CD45 (Homo sapiens, UniProt P08575); conditions: pNPP at Km, pH 7.0, 25° C.
T3 sequence (P08575 26-1306): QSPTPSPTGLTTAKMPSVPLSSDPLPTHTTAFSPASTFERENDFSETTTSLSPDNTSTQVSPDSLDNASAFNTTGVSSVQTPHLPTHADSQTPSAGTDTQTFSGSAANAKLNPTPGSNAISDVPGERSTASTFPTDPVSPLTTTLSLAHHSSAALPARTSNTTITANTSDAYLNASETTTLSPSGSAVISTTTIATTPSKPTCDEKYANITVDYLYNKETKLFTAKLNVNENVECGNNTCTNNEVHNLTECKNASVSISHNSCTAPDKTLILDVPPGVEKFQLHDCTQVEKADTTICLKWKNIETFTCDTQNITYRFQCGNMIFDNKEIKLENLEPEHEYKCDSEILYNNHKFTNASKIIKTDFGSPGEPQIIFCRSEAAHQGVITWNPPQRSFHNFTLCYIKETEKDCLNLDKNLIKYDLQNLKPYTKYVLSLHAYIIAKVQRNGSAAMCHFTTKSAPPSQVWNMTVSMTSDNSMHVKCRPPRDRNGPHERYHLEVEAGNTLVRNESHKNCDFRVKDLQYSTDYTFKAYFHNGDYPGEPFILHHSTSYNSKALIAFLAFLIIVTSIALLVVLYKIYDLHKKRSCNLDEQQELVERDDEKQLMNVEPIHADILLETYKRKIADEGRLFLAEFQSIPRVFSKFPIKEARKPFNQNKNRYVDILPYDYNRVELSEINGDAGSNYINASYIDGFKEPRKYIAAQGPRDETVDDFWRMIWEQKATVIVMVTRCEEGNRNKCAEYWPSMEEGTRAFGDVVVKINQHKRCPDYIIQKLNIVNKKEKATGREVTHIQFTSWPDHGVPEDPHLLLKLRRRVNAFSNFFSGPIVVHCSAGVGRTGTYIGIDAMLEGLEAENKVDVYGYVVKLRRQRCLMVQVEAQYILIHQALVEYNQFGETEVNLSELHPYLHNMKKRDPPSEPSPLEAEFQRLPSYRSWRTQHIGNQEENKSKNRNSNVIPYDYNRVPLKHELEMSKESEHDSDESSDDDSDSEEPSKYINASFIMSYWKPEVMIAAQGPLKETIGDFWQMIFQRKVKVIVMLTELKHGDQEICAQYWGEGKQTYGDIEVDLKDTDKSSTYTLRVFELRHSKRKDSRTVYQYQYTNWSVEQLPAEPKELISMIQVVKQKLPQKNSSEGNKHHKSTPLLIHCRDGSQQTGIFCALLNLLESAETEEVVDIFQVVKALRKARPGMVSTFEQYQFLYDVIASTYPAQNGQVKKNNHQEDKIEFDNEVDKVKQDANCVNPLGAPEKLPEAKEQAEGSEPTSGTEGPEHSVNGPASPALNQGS

VHR = VHR (Homo sapiens, UniProt P51452); conditions: pNPP at Km, pH 7.0, 25° C.
Chain of VHR (P51452 whole entry): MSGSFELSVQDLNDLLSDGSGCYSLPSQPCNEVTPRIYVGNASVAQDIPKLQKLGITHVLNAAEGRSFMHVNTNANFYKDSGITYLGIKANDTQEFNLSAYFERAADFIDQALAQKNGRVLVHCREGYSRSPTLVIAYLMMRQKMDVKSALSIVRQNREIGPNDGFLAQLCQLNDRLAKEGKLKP

PEST = molecular target: T4, PEST (Homo sapiens, UniProt Q05209)
T4 sequence (Q05209 1-780): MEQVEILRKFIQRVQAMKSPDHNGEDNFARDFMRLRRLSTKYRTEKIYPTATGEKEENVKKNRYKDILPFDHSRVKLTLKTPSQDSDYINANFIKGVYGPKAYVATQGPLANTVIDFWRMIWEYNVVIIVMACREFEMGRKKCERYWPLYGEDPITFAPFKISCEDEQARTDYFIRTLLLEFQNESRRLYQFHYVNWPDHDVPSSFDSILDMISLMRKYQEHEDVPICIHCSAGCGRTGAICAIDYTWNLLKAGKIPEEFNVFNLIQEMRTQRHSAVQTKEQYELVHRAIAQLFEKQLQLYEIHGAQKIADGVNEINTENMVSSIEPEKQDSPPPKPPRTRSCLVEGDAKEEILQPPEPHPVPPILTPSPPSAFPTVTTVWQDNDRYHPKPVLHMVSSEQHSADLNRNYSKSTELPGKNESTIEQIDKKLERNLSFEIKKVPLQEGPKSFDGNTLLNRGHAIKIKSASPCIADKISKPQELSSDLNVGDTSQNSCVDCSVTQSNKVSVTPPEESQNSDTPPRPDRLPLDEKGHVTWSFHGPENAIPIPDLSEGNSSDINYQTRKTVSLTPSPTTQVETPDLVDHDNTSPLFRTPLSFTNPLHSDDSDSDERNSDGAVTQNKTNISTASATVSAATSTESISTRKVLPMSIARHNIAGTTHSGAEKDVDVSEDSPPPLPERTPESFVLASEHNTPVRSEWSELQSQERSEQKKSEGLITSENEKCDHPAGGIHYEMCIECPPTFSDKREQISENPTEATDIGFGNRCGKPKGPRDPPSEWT

[1] = pNPP at Km, pH 7.0, 25° C., read-out: IC50 PEST

Compound	IC50 (PTP1B)	IC50 (HePTP)	IC50 (CD45)	IC50 (VHR)	IC50 (PEST; [1])	IC50 (PEST; IC50 PEST)	IC50 (PEST; pH 7, read-out: IC50 PEST)
Cc1c(Br)cc(NC(=O)CS(=O)(=O)O)cc1Br	> 100 µM	> 100 µM	> 100 µM	> 100 µM			
O=C(CS(=O)(=O)O)Nc1ccc2nc(C(F)(F)F)[nH]c2c1	> 100 µM	> 100 µM	> 100 µM	> 100 µM	> 100 µM		
O=C(CS(=O)(=O)O)Nc1cnc2ccccc2c1	> 100 µM	> 100 µM	> 100 µM	> 100 µM	> 100 µM		
O=C(NCCNC(=O)C(c1ccccc1)S(=O)(=O)O)c1cccc(C(=O)c2ccccc2)c1 (stereo not drawn) [Compound L319-02-A60]	> 200 µM	> 200 µM		> 200 µM	> 200 µM		
O=C(NCc1ccc(NC(=O)C(c2ccccc2)S(=O)(=O)O)cc1)c1ccccc1-c1ccc(C(F)(F)F)cc1 (stereo not drawn) [Compound L319-05-A64]	183 µM	150 µM			160 µM		
CCCCc1ccc(NC(=O)C(=O)Nc2ccccc2NC(=O)C(c2ccccc2)S(=O)(=O)O)cc1 (stereo not drawn) [Compound L319-21-M06]	> 50 µM	> 50 µM		> 50 µM	> 50 µM		
O=C(Nc1cccc(OCc2ccccc2)c1)C(=O)Nc1ccccc1NC(=O)C(c1ccccc1)S(=O)(=O)O (stereo not drawn) [Compound L319-21-M52]	> 50 µM	> 50 µM		> 50 µM	> 50 µM		
Cc1c(Br)cc(NC(=O)C(c2ccccc2)S(=O)(=O)O)cc1Br (stereo not drawn) [Compound L319M34]		> 100 µM				42.3 µM	72.3 µM
O=C(Nc1ccc(OCc2ccccc2)c(Cl)c1)C(c1ccccc1)S(=O)(=O)O (stereo not drawn) [Compound L319M50]	> 200 µM	> 100 µM		> 200 µM	69.9 µM		
O=C(Nc1cccc(OCc2ccccc2)c1)C(c1ccccc1)S(=O)(=O)O (stereo not drawn) [Compound L319M52]	> 200 µM	130 µM and > 100 µM	> 200 µM	> 200 µM	77 µM and 77.4 µM		
O=C(Nc1ccc2nc(C(F)(F)F)[nH]c2c1)C(c1ccccc1)S(=O)(=O)O (stereo not drawn) [Compound L319M54]	> 200 µM	> 200 µM	> 200 µM	> 200 µM	> 200 µM		
O=C(Nc1ccc(N2CCOCC2)cc1)C(c1ccccc1)S(=O)(=O)O (stereo not drawn) [Compound L319M68]	> 200 µM	> 200 µM	> 200 µM	> 200 µM	> 200 µM		
O=C(Nc1cnc2ccccc2c1)C(c1ccccc1)S(=O)(=O)O (stereo not drawn) [Compound L319M88]	> 200 µM	> 200 µM	> 200 µM	> 200 µM	> 200 µM		
O=C(Nc1ccc(-c2ccccc2)cc1)C(c1ccccc1)S(=O)(=O)O (stereo not drawn) [Compound L319N08]	> 200 µM	78 µM		> 200 µM		59.7 µM	
O=C(Nc1nc2ccccc2s1)C(c1ccccc1)S(=O)(=O)O (stereo not drawn) [Compound L319N15]	> 200 µM	50 µM	> 200 µM and 180 µM	> 200 µM	43.5 µM		
O=C(C(c1ccccc1)S(=O)(=O)O)N1CCC(Cc2ccccc2)CC1 (stereo not drawn) [Compound L319N46]	> 200 µM	> 200 µM	> 200 µM	> 200 µM	> 200 µM		
O=C(C(c1ccccc1)S(=O)(=O)O)N1CCC(c2ccc(Cl)c(Cl)c2)CC1 (stereo not drawn) [Compound L319N47]	145 µM	77 µM	140 µM	99 µM	42 µM		
O=C(C(c1ccccc1)S(=O)(=O)O)N1CCCC2CCCCC21 (stereo not drawn) [Compound L319N53]	> 200 µM	> 200 µM	> 200 µM	> 200 µM	> 200 µM		
O=C(CS(=O)(=O)O)Nc1nc2ccc([N+](=O)[O-])cc2s1 [Compound L335N15-07]	> 100 µM	> 100 µM	> 100 µM	> 100 µM	> 100 µM		
O=C(CS(=O)(=O)O)Nc1nc2ccccc2s1 [Compound L335N15]	> 100 µM	> 100 µM	> 100 µM	> 100 µM	> 100 µM		
